# Measured values from patent US6355640B1, “Pyrazolopyridine adenosine antagonists” (Fujisawa Pharmaceutical Co., Ltd., priority 1993, dated 2002).
row,melting point [°C],Structure (SMILES)
1,146 to 150,"COc1ccc2c(c1)CC[C@@H](O)[C@@H]2n1nc(-c2c(-c3ccccc3)nn3ccccc23)ccc1=O (relative stereo) [Example 30, trans-3-[2-(6-Hydroxy-2-methoxy-5,6,7,8-tetrahydro-5-naphthyl)-3-oxo-2,3-dihydropyridazin-6-yl]-2-phenylpyrazolo[1,5-a]pyridine]"
2,145 to 147,"O=C(O)CCCC1=C(n2nc(-c3c(-c4ccccc4)nn4ccccc34)ccc2=O)CCCC1 [Example 53, 3-[2-{2-(3-Carboxypropyl)-1-cyclohexenyl}-3-oxo-2,3-dihydropyridazin-6-yl]-2-phenylpyrazolo[1,5-a]pyridine]"
3,208.5 to 209,"O=C(CC1=C(n2nc(-c3c(-c4ccccc4)nn4ccccc34)ccc2=O)CCCC1)N1CCNCC1 [Example 113, 3-[2-{2-(piperazin-1-ylcarbonyl)methyl-1-cyclohexenyl}-3-oxo-2,3-dihydropyridazin-6-yl]-2-phenylpyrazolo[1,5-a]pyridine]"
4,238 to 240,"O=c1ccc(-c2c(-c3ccccc3)nn3ccccc23)nn1C1CCCCC1=NO (centres unmarked) (hydrate or solvate) [Example 89, 3-[2-(2-Hydroxyiminocyclohexyl)-3-oxo-2,3-dihydropyridazin-6-yl]-2-phenylpyrazolo[1,5-a]pyridine]"
5,156 to 158,"CC1CC(C)(C)N=C(/C=C2\CCCCC2n2nc(-c3c(-c4ccccc4)nn4ccccc34)ccc2=O)O1 (centres unmarked) [Example 97(1), (E)-3-[2-{2-(4,4,6-Trimethyl-5,6-dihydro-4H-1,3-oxazin-2-yl)methylenecyclohexyl}-3-oxo-2,3-dihydropyridazin-6-yl]-2-phenylpyrazolo[1,5-a]pyridine]"
6,180.5 to 182.5,"O=C(CC1=C(n2nc(-c3c(-c4ccccc4)nn4ccccc34)ccc2=O)CCCC1)N1CCSCC1 [Example 80, 3-[2-{2-(Thiomorpholin-4-ylcarbonyl)methyl-1-cyclohexenyl}-3-oxo-2,3-dihydropyridazin-6-yl]-2-phenylpyrazolo[1,5-a]pyridine]"
7,186 to 188,"O=C(O)[C@@H]1CC[C@H](n2nc(-c3c(-c4ccccc4)nn4ccccc34)ccc2=O)C(=O)C1 (relative stereo) [Example 13, cis-3-[2-(4-carboxy-2-oxocyclohexyl)-3-oxo-2,3-dihydropyridazin-6-yl]-2-phenylpyrazolo[1,5-a]pyridine]"
8,143 to 145,"CCCn1c(=O)cc(-n2nc(-c3c(-c4ccccc4)nn4ccccc34)ccc2=O)n(CC(=O)OC)c1=O [Example 28, 3-[2-(2,4-Dioxo-1-methoxycarbonylmethyl-3-propyl-1,2,3,4-tetrahydropyrimidin-6-yl)-3-oxo-2,3-dihydropyridazin-6-yl]-2-phenylpyrazolo[1,5-a]pyridine]"
9,163,"COc1ccccc1-n1nc(-c2c(-c3ccccc3)nn3ccccc23)ccc1=O [Example 101, 3-[2-(2-Methoxyphenyl)-3-oxo-2,3-dihydropyridazin-6-yl]-2-phenylpyrazolo[1,5-a]pyridine]"
10,252 to 253,"O=C(O)C[C@H]1CCCC[C@H]1n1nc(-c2c(-c3ccccc3)nn3ccccc23)ccc1=O (relative stereo) [Example 38, cis-3-[2-(2-carboxymethylcyclohexyl)-3-oxo-2,3-dihydropyridazin-6-yl]-2-phenylpyrazolo[1,5-a]pyridine]"
11,166 to 168,"CCOC(=O)C=C1CCC(n2nc(-c3c(-c4ccccc4)nn4ccccc34)ccc2=O)CC1 (centres unmarked) [Example 94, 3-[2-(4-ethoxycarbonylmethylenecyclohexyl)-3-oxo-2,3-dihydropyridazin-6-yl]-2-phenylpyrazolo[1,5-a]-pyridine]"
12,117 to 118,"O=c1ccc(-c2c(-c3ccccc3)nn3ccccc23)nn1C1CCCC(O)C1 (centres unmarked) [Example 104, 3-[2-(3-hydroxycyclohexyl)-3-oxo-2,3-dihydropyridazin-6-yl]-2-phenylpyrazolo[1,5-a]pyridine]"
13,101 to 105,"CNC1CCN(C(=O)CC2=C(n3nc(-c4c(-c5ccccc5)nn5ccccc45)ccc3=O)CCCC2)CC1 (hydrate or solvate) [Example 86, 3-[2-{2-(4-Methylaminopiperidinocarbonyl)methyl-1-cyclohexenyl}-3-oxo-2,3-dihydropyridazin-6-yl]-2-phenylpyrazolo[1,5-a]pyridine]"
14,56 to 60,"CCOC(=O)CN(C)C(=O)CC1=C(n2nc(-c3c(-c4ccccc4)nn4ccccc34)ccc2=O)CCCC1 [Example 68, 3-[2-{2-(N-ethoxycarbonylmethyl-N-methylcarbamoyl)methyl-1-cyclohexenyl}-3-oxo-2,3-dihydropyridazin-6-yl]-2-phenylpyrazolo[1,5-a]pyridine]"
15,111 to 113,"O=C(CCC1=C(n2nc(-c3c(-c4ccccc4)nn4ccccc34)ccc2=O)CCCC1)OCc1ccccc1 [Example 66, 3-[2-{2-(2-benzyloxycarbonylethyl)-1-cyclohexenyl}-3-oxo-2,3-dihydropyridazin-6-yl]-2-phenylpyrazolo[1,5-a]pyridine]"
16,188 to 191,CN1CCN(C(=O)CC2=C(n3nc(-c4c(-c5ccccc5)nn5ccccc45)ccc3=O)CCCC2)CC1.Cl (hydrate or solvate)
17,171 to 172,"O=C(O)CC1=C(n2nc(-c3c(-c4ccccc4)nn4ccccc34)ccc2=O)CCCCC1 (hydrate or solvate) [Example 19, 3-[2-(2-carboxymethyl-1-cycloheptenyl)-3-oxo-2,3-dihydropyridazin-6-yl]-2-phenylpyrazolo[1,5-a]-pyridine]"
18,188 to 190,"O=C(O)C=C1CCC(n2nc(-c3c(-c4ccccc4)nn4ccccc34)ccc2=O)CC1 (centres unmarked) [Example 51, 3-[2-(4-Carboxymethylenecyclohexyl)-3-oxo-2,3-dihydropyridazin-6-yl]-2-phenylpyrazolo[1,5-a]pyridine]"
19,184 to 185,"O=C(CC1=C(n2nc(-c3c(-c4ccccc4)nn4ccccc34)ccc2=O)CCCC1)N1CCCCC1 [Example 85, 3-[2-{2-(Piperidinocarbonyl)methyl-1-cyclohexenyl}-3-oxo-2,3-dihydropyridazin-6-yl]-2-phenylpyrazolo[1,5-a]-pyridine]"
20,158,"COc1ccc(-n2nc(-c3c(-c4ccccc4)nn4ccccc34)ccc2=O)cc1 [Example 100, 3-[2-(4-Methoxyphenyl)-3-oxo-2,3-dihydropyridazin-6-yl]-2-phenylpyrazolo[1,5-a]pyridine]"
21,129 to 131,"O=c1ccc(-c2c(-c3ccccc3)nn3ccccc23)nn1C1CCCCC1=Cc1nnn[nH]1 (centres unmarked) [Example 111, 3-[2-{2-(1H-tetrazol-5-yl)methylenecyclohexyl}-3-oxo-2,3-dihydropyridazin-6-yl]-2-phenylpyrazolo[1,5-a]pyridine]"
22,195 to 197,"O=c1ccc(-c2c(-c3ccccc3)nn3ccccc23)nn1[C@@H]1CCCC[C@@H]1O (relative stereo) [Example 4, cis-3-[2-(2-hydroxycyclohexyl)-3-oxo-2,3-dihydropyridazin-6-yl]-2-phenylpyrazolo[1,5-a]pyridine]"
23,115 to 117,"O=c1ccc(-c2c(-c3ccccc3)nn3ccccc23)nn1C1CCCCC1 [Example 1, 3-(2-cyclohexyl-3-oxo-2,3-dihydropyridazin-6-yl)-2-phenylpyrazolo[1,5-a]pyridine]"
